Measured values published in publication PMC10010161 (RSC Advances, 2023).
Where a SMILES comes first, the peptide text is derived from it.

Legend:
Horizon-LBA = assay type: in vitro ADME; settings: DOPC; for degree of decrease of permeability coefficient relative to 1: 1.5 h; for relative permeability compared with CsA (in words): 2 h
Caco-2 = Caco-2 assay; cited from earlier work
[1] = PAMPA; cited from earlier work

Molecule: CC[C@@H]1NC(=O)[C@H](C)N(C)C(=O)[C@H](C(C)C)N(C)C(=O)[C@H](CC(C)C)N(C)C(=O)[C@H](CC(C)C)N(C)C(=O)[C@@H](C)NC(=O)[C@H](C)NC(=O)[C@H](CC(C)C)N(C)C(=O)[C@H](C(C)C)NC(=O)[C@H](C)N(C)C(=O)CN(C)C1=O [compound 5] (HELM PEPTIDE1{A.[dA].[meL].[meL].[meV].[meA].[Abu].[Sar].[meA].V.[meL]}$PEPTIDE1,PEPTIDE1,1:R1-11:R2$$$V2.0)
- degree of decrease of permeability coefficient relative to 1 (Horizon-LBA): less than 50%

Molecule: CC[C@@H]1NC(=O)[C@H](CC(C)C)N(C)C(=O)[C@H](C(C)C)N(C)C(=O)[C@H](CC(C)C)N(C)C(=O)[C@H](CC(C)C)N(C)C(=O)[C@@H](C)NC(=O)[C@H](C)NC(=O)[C@H](CC(C)C)N(C)C(=O)[C@H](C(C)C)NC(=O)[C@H](CC(C)C)N(C)C(=O)CN(C)C1=O [compound 2]
- relative permeability compared with CsA (in words) (Horizon-LBA): significant differences in the relative permeability of 2 and 3 from CsA were not observed

Molecule: CC[C@@H]1NC(=O)[C@H]([C@@H](C)O)N(C)C(=O)[C@H](C(C)C)N(C)C(=O)[C@H](CC(C)C)N(C)C(=O)[C@H](CC(C)C)N(C)C(=O)[C@@H](C)NC(=O)[C@H](C)NC(=O)[C@H](CC(C)C)N(C)C(=O)[C@H](C(C)C)NC(=O)[C@H](CC(C)C)N(C)C(=O)CN(C)C1=O [compound 3]
- relative permeability compared with CsA (in words) (Horizon-LBA): significant differences in the relative permeability of 2 and 3 from CsA were not observed

Molecule: cyclosporin O [CsO]
- permeability compared with CsA (in words) (Caco-2): lower permeability of CsO than CsA
- permeability compared with CsA (in words) [1]: lower permeability of CsO than CsA

Molecule: CC[C@@H]1NC(=O)[C@H](C)N(C)C(=O)[C@H](C(C)C)N(C)C(=O)[C@H](CC(C)C)N(C)C(=O)[C@H](C)N(C)C(=O)[C@@H](C)NC(=O)[C@H](C)NC(=O)[C@H](CC(C)C)N(C)C(=O)[C@H](C(C)C)NC(=O)[C@H](CC(C)C)N(C)C(=O)CN(C)C1=O [compound 8] (HELM PEPTIDE1{A.[dA].[meA].[meL].[meV].[meA].[Abu].[Sar].[meL].V.[meL]}$PEPTIDE1,PEPTIDE1,1:R1-11:R2$$$V2.0)
- degree of decrease of permeability coefficient relative to 1 (Horizon-LBA): less than 50%

Molecule: CC[C@@H]1NC(=O)[C@H](C)N(C)C(=O)[C@H](C(C)C)N(C)C(=O)[C@H](CC(C)C)N(C)C(=O)[C@H](CC(C)C)N(C)C(=O)[C@@H](C)NC(=O)[C@H](C)NC(=O)[C@H](CC(C)C)N(C)C(=O)[C@H](C(C)C)NC(=O)[C@H](CC(C)C)N(C)C(=O)CN(C)C1=O [compound 1]
- relative permeability compared with CsA (in words) (Horizon-LBA): higher permeability than CsA
